Structures can show the parent of a compound that is named as a salt.
assay: in vitro; settings: human, hek293t cells

In order of falling viability at 48 h, 25 µM:
1. CCN(C(=O)C(C)Cl)C1CCCCC1 (stereo not drawn) [5-I19, 2-chloro-N-cyclohexyl-N-ethylpropanamide]  134%
2. COc1ccccc1C(NC(=O)C(C)Cl)c1ccco1 (stereo not drawn) [5-H19, 2-chloro-N-[(furan-2-yl)(2-methoxyphenyl)methyl]propanamide]  120%
3. CC(=O)N1CCC(N(Cc2cncs2)C(=O)C(C)Cl)CC1 (stereo not drawn) [5-H21, N-(1-acetylpiperidin-4-yl)-2-chloro-N-[(1,3-thiazol-5-yl)methyl]propanamide]  119%
4. O=C(CCl)NCCCN1CCCCCC1=O [5-J10, 2-chloro-N-[3-(2-oxoazepan-1-yl)propyl]acetamide]  119%
5. CC(Cl)C(=O)N1CCc2ccccc21 (stereo not drawn) [5-H04, 2-chloro-1-(2,3-dihydro-1H-indol-1-yl)propan-1-one]  114%
6. CC(Cl)C(=O)N1CCOCC1 (stereo not drawn) [5-H09, 2-chloro-1-(morpholin-4-yl)propan-1-one]  103%
7. CC(Cl)C(=O)N(C)C1CCCCC1 (stereo not drawn) [5-J04, 2-chloro-N-cyclohexyl-N-methylpropanamide]  94.1%
8. CC(Cl)C(=O)NC(=O)Nc1ccccc1 (stereo not drawn) [5-I21, 3-(2-chloropropanoyl)-1-phenylurea]  92.7%
9. CC(Cl)C(=O)Nc1ccc2ccccc2c1 (stereo not drawn) [5-H10, 2-chloro-N-(naphthalen-2-yl)propanamide]  90.7%
10. Cc1csc(CN2CCN(C(=O)C(C)Cl)CC2)n1 (stereo not drawn) [5-H17, 2-chloro-1-{4-[(4-methyl-1,3-thiazol-2-yl)methyl]piperazin-1-yl}propan-1-one]  87.4%
11. CC(c1ccccc1F)N1CCCC(NC(=O)CCl)C1=O (stereo not drawn) [5-I10, 2-chloro-N-{1-[1-(2-fluorophenyl)ethyl]-2-oxopiperidin-3-yl}acetamide]  80.5%
12. CC(Cl)C(=O)Nc1ccc([N+](=O)[O-])cc1C#N (stereo not drawn) [5-I15, 2-chloro-N-(2-cyano-4-nitrophenyl)propanamide]  78.6%
13. CC(Cl)C(=O)Nc1ccc(Cl)c(S(=O)(=O)N(C)C)c1 (stereo not drawn) [5-G21, 2-chloro-N-[4-chloro-3-(dimethylsulfamoyl)phenyl]propanamide]  78.5%
14. CC(Cl)C(=O)N1N=C(c2ccc(Cl)cc2)CC1c1ccco1 (stereo not drawn) [5-H18, 2-chloro-1-[3-(4-chlorophenyl)-5-(furan-2-yl)-4,5-dihydro-1H-pyrazol-1-yl]propan-1-one]  78.1%
15. CC(Cl)C(=O)Nc1cccc(Cl)c1 (stereo not drawn) [5-H22, 2-chloro-N-(3-chlorophenyl)propanamide]  78%
16. CC1=C(c2ccco2)CN(C(=O)CCl)CC1 [5-H05, 2-chloro-1-[5-(furan-2-yl)-4-methyl-1,2,3,6-tetrahydropyridin-1-yl]ethan-1-one]  69.1%
17. O=C(CCl)NCC1CCCCC1 [5-J06, 2-chloro-N-(cyclohexylmethyl)acetamide]  52.1%
18. CCOC(=O)C1=C(C)NC(=O)N(C(=O)CCl)C1c1ccccc1 (stereo not drawn) [5-I05, ethyl 3-(2-chloroacetyl)-6-methyl-2-oxo-4-phenyl-1,2,3,4-tetrahydropyrimidine-5-carboxylate]  44.7%
19. Cc1c(NC(=O)CCl)c(=O)n(-c2ccccc2)n1C [5-G17, 2-chloro-N-(1,5-dimethyl-3-oxo-2-phenyl-2,3-dihydro-1H-pyrazol-4-yl)acetamide]  42.7%
20. O=C(CCl)NC1CCCCCC1 [5-H16, 2-chloro-N-cycloheptylacetamide]  17.7%
21. CN(Cc1ccc(-c2ccc(Cl)cc2)o1)C(=O)CCl [5-I13, 2-chloro-N-{[5-(4-chlorophenyl)furan-2-yl]methyl}-N-methylacetamide]  16.8%
22. Cc1cc(CN(C(=O)CCl)c2cn(C)nn2)ccc1Cl [5-I12, 2-chloro-N-[(4-chloro-3-methylphenyl)methyl]-N-(1-methyl-1H-1,2,3-triazol-4-yl)acetamide]  13.7%
23. CCN(c1ccc(NC(=O)CCl)cc1)C(C)C [5-J08, 2-chloro-N-{4-[ethyl(propan-2-yl)amino]phenyl}acetamide hydrochloride]  3.48%
24. O=C(CCl)NCC(=O)Nc1nccs1 [5-G22, 2-chloro-N-{[(1,3-thiazol-2-yl)carbamoyl]methyl}acetamide]  3.47%
25. O=C(CCl)NC1CN(S(=O)(=O)c2ccc3c(c2)OCCO3)C1 [5-I16, 2-chloro-N-[1-(2,3-dihydro-1,4-benzodioxine-6-sulfonyl)azetidin-3-yl]acetamide]  2.6%
26. COc1ccc(N(C(=O)CCl)C2CCS(=O)(=O)C2)cc1 (stereo not drawn) [5-I20, 2-chloro-N-(1,1-dioxo-1lambda6-thiolan-3-yl)-N-(4-methoxyphenyl)acetamide]  2.54%
27. N#Cc1cccc(NC2CCN(C(=O)CCl)C2)c1 (stereo not drawn) [5-I22, 3-{[1-(2-chloroacetyl)pyrrolidin-3-yl]amino}benzonitrile]  2.25%
28. CC(C)(C)N(Cc1ccccc1)C(=O)CCl [5-H20, N-benzyl-N-tert-butyl-2-chloroacetamide]  1.81%
29. CC(Oc1cccc(F)c1F)C(=O)N1CCN(C(=O)CCl)CC1 (stereo not drawn) [5-H03, 1-[4-(2-chloroacetyl)piperazin-1-yl]-2-(2,3-difluorophenoxy)propan-1-one]  1.67%
30. CN(C(=O)c1ccccc1)C1CC2CCC(C1)N2C(=O)CCl (stereo not drawn) [5-J03, N-[8-(2-chloroacetyl)-8-azabicyclo[3.2.1]octan-3-yl]-N-methylbenzamide]  1.62%
31. CNC(=O)c1ccn(C2CCCN(C(=O)CCl)C2)n1 (stereo not drawn) [5-I08, 1-[1-(2-chloroacetyl)piperidin-3-yl]-N-methyl-1H-pyrazole-3-carboxamide]  1.61%
32. O=C(CCl)N1CCCCc2ccc([N+](=O)[O-])cc21 [5-I18, 2-chloro-1-(8-nitro-2,3,4,5-tetrahydro-1H-1-benzazepin-1-yl)ethan-1-one]  1.56%
33. CCCN(CC1CC1)C(=O)CCl [5-H11, 2-chloro-N-(cyclopropylmethyl)-N-propylacetamide]  1.45%
34. Cc1cc(NS(=O)(=O)c2ccc(NC(=O)CCl)cc2)nc(C)n1 [5-I09, 2-chloro-N-{4-[(2,6-dimethylpyrimidin-4-yl)sulfamoyl]phenyl}acetamide]  1.31%
35. CC1CSc2ccc(Cl)cc2N(C(=O)CCl)C1 (stereo not drawn) [5-J05, 2-chloro-1-(7-chloro-3-methyl-2,3,4,5-tetrahydro-1,5-benzothiazepin-5-yl)ethan-1-one]  1.21%
36. O=C(CCl)Nc1nc2c(s1)CCCC2 [5-G15, 2-chloro-N-(4,5,6,7-tetrahydro-1,3-benzothiazol-2-yl)acetamide]  1.2%
37. COc1ccc(N(C(=O)CCl)C2C=CS(=O)(=O)C2)cc1 (stereo not drawn) [5-H14, 2-chloro-N-(1,1-dioxo-2,3-dihydro-1lambda6-thiophen-3-yl)-N-(4-methoxyphenyl)acetamide]  1.1%
38. CCCN(Cc1ccc(C)cc1)C(=O)CCl [5-J09, 2-chloro-N-[(4-methylphenyl)methyl]-N-propylacetamide]  0.952%
39. CCn1cc(CN(C(=O)CCl)[C@H]2CC[C@H](C)CC2)cn1 [5-G16, 2-chloro-N-[(1-ethyl-1H-pyrazol-4-yl)methyl]-N-[(1r,4r)-4-methylcyclohexyl]acetamide]  0.893%
40. O=C(CCl)Nc1cccc(OCc2ccccc2)c1 [5-I04, N-[3-(benzyloxy)phenyl]-2-chloroacetamide]  0.885%
41. O=C(CCl)N1CC(Cc2ccc(F)cc2F)C1 [5-G20, 2-chloro-1-{3-[(2,4-difluorophenyl)methyl]azetidin-1-yl}ethan-1-one]  0.867%
42. CC1CSc2ccccc2N(C(=O)CCl)C1 (stereo not drawn) [5-H07, 2-chloro-1-(3-methyl-2,3,4,5-tetrahydro-1,5-benzothiazepin-5-yl)ethan-1-one]  0.825%
43. COc1ccc(CCNC(=O)CCl)cc1 [5-H12, 2-chloro-N-[2-(4-methoxyphenyl)ethyl]acetamide]  0.726%
44. O=C(CCl)Nc1cc(Cl)ccc1Oc1ccccc1 [5-G19, 2-chloro-N-(5-chloro-2-phenoxyphenyl)acetamide]  0.676%
45. Cc1cc(CN(Cc2ccn(C)n2)C(=O)CCl)ccc1F [5-G14, 2-chloro-N-[(4-fluoro-3-methylphenyl)methyl]-N-[(1-methyl-1H-pyrazol-3-yl)methyl]acetamide]  0.658%
46. CC(Cc1c[nH]c2cc(F)c(F)cc12)NC(=O)CCl (stereo not drawn) [5-I07, 2-chloro-N-[1-(5,6-difluoro-1H-indol-3-yl)propan-2-yl]acetamide]  0.657%
47. O=C(CCl)N(Cc1ccccc1)Cc1ccc(F)cc1 [5-I06, N-benzyl-2-chloro-N-[(4-fluorophenyl)methyl]acetamide]  0.621%
48. O=C(CCl)N1CCCCC1c1nc(-c2ccccn2)cs1 (stereo not drawn) [5-G18, 2-chloro-1-{2-[4-(pyridin-2-yl)-1,3-thiazol-2-yl]piperidin-1-yl}ethan-1-one]  0.612%
49. CCN(Cc1ccc(C#N)cc1F)C(=O)CCl [5-H08, 2-chloro-N-[(4-cyano-2-fluorophenyl)methyl]-N-ethylacetamide]  0.591%
50. Cc1ccc(C2=NN(C(=O)CCl)C(c3cccs3)C2)o1 (stereo not drawn) [5-I17, 2-chloro-1-[3-(5-methylfuran-2-yl)-5-(thiophen-2-yl)-4,5-dihydro-1H-pyrazol-1-yl]ethan-1-one]  0.348%
51. O=C(CCl)N(Cc1ccnn1C1CCC1)C1CC=CCC1 (stereo not drawn) [5-I14, 2-chloro-N-[(1-cyclobutyl-1H-pyrazol-5-yl)methyl]-N-(cyclohex-3-en-1-yl)acetamide]  0.326%
52. CC1CCN(C(=O)CCl)c2cc(C(F)(F)F)ccc2S1 (stereo not drawn) [5-J07, 2-chloro-1-[2-methyl-7-(trifluoromethyl)-2,3,4,5-tetrahydro-1,5-benzothiazepin-5-yl]ethan-1-one]  0.306%
53. CCN(CC)C(=O)c1cccc(NC(=O)CCl)c1 [5-I03, 3-(2-chloroacetamido)-N,N-diethylbenzamide]  0.175%
54. CN(C(=O)CCl)C(c1ccccc1)c1ccccc1 [5-H06, 2-chloro-N-(diphenylmethyl)-N-methylacetamide]  0.0655%

Source: paper PMC11995724, “Antibiotic target discovery by integrated phenotypic and activity-based profiling of electrophilic fragments” (Cell chemical biology, 2025)
